Data: patent publication US20250177340A1, “Tartaric Acid Analogs and Uses Thereof” (Lapix Therapeutics, Inc., priority 2021, published 2025)

How the values were obtained:
murine CD8+ T-cells = experiment: Murine CD8+ T-cell proliferation concentration-response (CFSE), Example 7; type: cell-based, C57BL/6 mice; conditions: for CD8+ T-cell proliferation: 0.001-30 mM, absence of PS, low dose ConA; for model estimated EC80, CD8+ T-cell proliferation: in the presence of 0.1 mM PS, log-logistic model; for reversal of suppressive effects of PS on T-cell proliferation: increasing doses, 0.1 mM PS liposomes
Excerpt: In this study, the effects of increasing doses of compound B and compound C on proliferation (CFSE staining), activation (Granzyme B and IFN-γ), and checkpoint modulation (PD1 and TIM3) of murine CD8+ T-cells in the presence and absence of phosphatidylserine (PS) were explored.
Preparation of test materials: 30:70 PS:DMPC liposomes were synthesized in PBS. […] Compound C was first dissolved in a small volume of DMSO before diluting to the final desired concentration.
Tissue culture and dosing: Splenocytes of C57BL/6 mice were stained with CFSE and prepared, cultured, and dosed. Cells were seeded at 4×10^5 cells/well.
Controls: Two controls were used. A negative control dosed with 10 ng/ml IL-2 was used, and a positive control dosed with 20 μg/ml ConA and 10 ng/ml IL-2 was used.
Treatment: After ConA stimulation (10 μg/ml), cells were dosed with log 3 dilution of compound B or compound C to cover a range from 1×10^−3 to 30 mM in duplicates with or without 0.1 mM PS:DMPC liposomes. All wells were dosed with 10 ng/ml of IL-2.
Flow cytometer: Flow cytometer analysis was performed to assess cell proliferation by CFSE, activation by double staining for Granzyme B (GzmB) and IFN-γ, checkpoint modulation by double staining for PD-1 and TIM3.
Exposure-response analysis: Change from baseline was calculated for each marker as follows:
Concentration versus change was fitted to an appropriate three-, four- or five-parameter log-logistic model using “dre” package in “R.”
The fold change from baseline of CD8+ T-cells proliferation as a function of increasing doses of compound B was calculated using equation 1, where ResponseControl was the proliferation of cells treated with IL-2 alone and Responsetreatment was the proliferation at each dose of compound B. The baseline PS response was calculated using the same equation where Responsetreatment was the proliferation of cells treated with 0.1 mM PS.

KLRG-1 = experiment: Percent KLRG-1+/CD8+ T-cells in splenocytes after a single dose, melanoma murine model; type: in vivo, mice
Method: (§1) The pharmacodynamic (PD) effects of a single IV dose of Compound B in a melanoma murine model were evaluated. B16F10 melanoma cells were grown in RPMI 1640 media supplemented with 10% FBS and antibiotics (penicillin/streptomycin) using T75 flasks. When cells reached 70-80% confluency, they were treated with 3 ml of 0.25% Trypsin/EDTA. Afterward, detached cells were harvested. A single-cell suspension was prepared in PBS. An IV injection of 10^5 cells in mice marked day −3 of the experiment.
(§2) Animals were housed four per cage, and had access to food and water ad libitum. Compound B was dissolved in sterile PBS, and pH was adjusted to approximately 7.5. Sterile PBS served as control.
(§3) Three days after the IV injection of melanoma cells, animals in the baseline group (n=3) were sacrificed and their spleens were collected for KLRG-1, CTLA-4, and PD-1 analysis. At each predetermined time-point (24, 48, and 120 hours after dosing) three animals from each group were sacrificed for splenocyte analysis of KLRG-1, CTLA-4, and PD-1 expression levels, and expression levels were compared to baseline.
(§4) Spleens collected for splenocyte analysis were prepared into a single-cell suspension for cellular phenotyping by flow cytometry. Cells were stained and gated for CD8. Percent KLRG-1+, CTLA-4+, and PD-1+ CD8+ T-cells were evaluated using flow cytometry.
The PD effects of a single IV dose of Compound C were evaluated in a melanoma murine model conducted as described in Example 10. […] This study also evaluated whether Compound C was pharmacodynamically active orally.
In a prior study, Compound C was dosed at 1 mg IV QD for seven days. […] A single PO dose was chosen to confirm oral activity of Compound C. Compound C was dissolved in DMSO, and then diluted in sterile PBS. pH was adjusted to approximately 7.5.
The oral and intravenous PD effects of a single dose of Compound E were evaluated in a melanoma murine model conducted as described in Example 10.
Compound E was dissolved in DMSO, and then diluted in sterile PBS. pH was adjusted to approximately 7.5.

B16F10 melanoma cells [1] = experiment: Dose-dependent tumor regression in established B16F10 tumors (Example 15); type: in vivo, C57BL6 mice
Method: C57BL6 mice received 10^5 B16F10 melanoma cells via SC injection at day 0. Tumor growth was monitored until tumor size reached 200 to 300 mm^3, at which time the mouse was randomized into one of the treatment groups or the control group. Mice were dosed orally until the end of the study.

B16F10 melanoma cells [2] = experiment: Lung metastasis and survival after IV B16F10 melanoma cells (Example 16); type: in vivo, C57BL6 mice; conditions: 4 mg/mouse orally daily for two weeks
Method: C57BL6 mice received 10^5 B16F10 melanoma cells via IV injection at day 0. At day 7, mice were randomized into one of two groups (n=6 per group): an untreated group and a group treated orally with Compound B at 4 mg/mouse daily for two weeks.
At the end of the first week of treatment (14 days after tumor injection), three mice from each group were euthanized, and lung metastasis was counted (FIG. 11A). By the end of the second week of treatment (21 days after tumor injection), two out of the three remaining control mice had died. The remaining control mouse and the three remaining Compound B-treated mice were euthanized, and lung metastasis assessed (FIG. 111B).

CTLA-4 = experiment: Percent CTLA-4+/CD8+ T-cells in splenocytes after a single dose, melanoma murine model; type: in vivo, mice
Method: as §1, §2, §3, §4

melanoma cells = experiment: Tumor growth inhibition and overall survival, two doses of Compound B (Example 14); type: in vivo, mice
Method: This study was designed to evaluate the effects of two different doses of Compound B on tumor growth and the overall survival of animals implanted SC with 10^5 melanoma cells. The study was carried out in accordance with the study described in Example 13, except that mice received either placebo, 0.4 mg/mouse PO QD of Compound B for seven days starting at day 7 after tumor implantation, or 4 mg/mouse PO QD of Compound B for seven days starting at day 7 after tumor implantation.

[3] = 0.14 mg/mouse IV single dose, 24 h
[4] = 0.14 mg/mouse IV single dose, 48 h
[5] = 0.14 mg/mouse IV single dose, 120 h
[6] = 0.7 mg/mouse IV single dose, 24 h
[7] = 0.7 mg/mouse IV single dose, 48 h
[8] = 0.7 mg/mouse IV single dose, 120 h
[9] = 1.4 mg/mouse IV single dose, 24 h
[10] = 1.4 mg/mouse IV single dose, 48 h
[11] = 1.4 mg/mouse IV single dose, 120 h

Structure (SMILES): O=C(O)[C@H](O)[C@@H](O)C(=O)OCCC(c1ccccc1)c1ccccc1 [Compound C, (2R,3R)-4-(3,3-diphenylpropoxy)-2,3-dihydroxy-4-oxobutanoic acid]
- doses at which proliferation overlapped with that in absence of PS (murine CD8+ T-cells; 0.1 mM PS): greater than 0.03 mM
- CD8+ T-cell proliferation (murine CD8+ T-cells): robust proliferation
- model estimated EC80, CD8+ T-cell proliferation (murine CD8+ T-cells): 14.6 µM
- reversal of suppressive effects of PS on T-cell proliferation (murine CD8+ T-cells): completely reversed
- KLRG-1+/CD8+ T-cells, mean (KLRG-1; 0.025 mg/mouse IV single dose, 24 h): 4.9%
- KLRG-1+/CD8+ T-cells, mean (KLRG-1; 0.1 mg/mouse IV single dose, 24 h): 4.1%
- KLRG-1+/CD8+ T-cells, mean (KLRG-1; 0.25 mg/mouse IV single dose, 24 h): 3.4%
- KLRG-1+/CD8+ T-cells, mean (KLRG-1; 1 mg/mouse IV single dose, 24 h): 3.3%
- oral pharmacodynamic activity (KLRG-1; 2.5 mg PO single dose): not orally effective at the tested dose
- KLRG-1+/CD8+ T-cells, mean (KLRG-1; 2.5 mg/mouse po single dose, 24 h): 4.6%
- decrease in KLRG-1+/CD8+ T-cells compared to baseline (KLRG-1; 0.25- and 1-mg IV groups): approximately 15%
- decrease in KLRG-1+/CD8+ T-cells compared to time match control (KLRG-1; 0.25- and 1-mg IV groups): approximately 31%
- change in KLRG-1+/CD8+ T-cells compared to baseline or control (KLRG-1; remaining groups (0.025, 0.1 mg IV, 2.5 mg PO)): No meaningful changes

Structure (SMILES): O=C(O)[C@H](O)[C@@H](O)C(=O)OCCCc1ccccc1 [Compound B, (2R,3R)-2,3-dihydroxy-4-oxo-4-(3-phenylpropoxy)butanoic acid]
- day by which all animals died of disease (B16F10 melanoma cells [1]; 0.1 mg PO, tumors 200 to 300 mm^3 at start): ≤ 20 days
- day by which animals died (B16F10 melanoma cells [1]; 0.4 mg PO): ≤ 30 days
- tumor progression versus low-dose group and untreated mice (B16F10 melanoma cells [1]; 0.4 mg PO): progressed more slowly
- tumor growth (B16F10 melanoma cells [1]; 1 mg PO): Tumor growth control was observed early on
- tumor growth (B16F10 melanoma cells [1]; 4 mg PO): Tumor regression was observed
- lung metastasis (B16F10 melanoma cells [2]): controlled (e.g., prevented) metastasis
- survival compared to untreated mice (B16F10 melanoma cells [2]): improved survival
- CTLA-4+/CD8+ T-cells, mean (CTLA-4; [3]): 9.8%
- CTLA-4+/CD8+ T-cells, mean (CTLA-4; [4]): 5.3%
- CTLA-4+/CD8+ T-cells, mean (CTLA-4; [5]): 11.9%
- CTLA-4+/CD8+ T-cells, mean (CTLA-4; [6]): 8.5%
- CTLA-4+/CD8+ T-cells, mean (CTLA-4; [7]): 5.7%
- CTLA-4+/CD8+ T-cells, mean (CTLA-4; [8]): 12.5%
- CTLA-4+/CD8+ T-cells, mean (CTLA-4; [9]): 7.4%
- CTLA-4+/CD8+ T-cells, mean (CTLA-4; [10]): 5.6%
- CTLA-4+/CD8+ T-cells, mean (CTLA-4; [11]): 11.7%
- decrease from baseline in CTLA-4+/CD8+ T-cells (CTLA-4; single IV dose (0.14, 0.7, 1.4 mg), 48 h): approximately 35%
- reduction in CTLA-4+/CD8+ T-cells compared to same time point in control group (CTLA-4; single IV injection, 48 h): approximately 38%
- CD8+ T-cell proliferation (murine CD8+ T-cells): robust proliferation
- target concentration considered an effective dose (murine CD8+ T-cells; based on Example 7 analysis): 0.1 mM
- model estimated EC80, CD8+ T-cell proliferation (murine CD8+ T-cells): 139 µM
- reversal of suppressive effects of PS on T-cell proliferation (murine CD8+ T-cells): partially reversed
- KLRG-1+/CD8+ T-cells, mean (KLRG-1; [3]): 6.2%
- KLRG-1+/CD8+ T-cells, mean (KLRG-1; [4]): 4.8%
- KLRG-1+/CD8+ T-cells, mean (KLRG-1; [5]): 11.4%
- KLRG-1+/CD8+ T-cells, mean (KLRG-1; [6]): 6.5%
- KLRG-1+/CD8+ T-cells, mean (KLRG-1; [7]): 3.0%
- KLRG-1+/CD8+ T-cells, mean (KLRG-1; [8]): 11.7%
- KLRG-1+/CD8+ T-cells, mean (KLRG-1; [9]): 7.6%
- KLRG-1+/CD8+ T-cells, mean (KLRG-1; [10]): 2.5%
- KLRG-1+/CD8+ T-cells, mean (KLRG-1; [11]): 11.3%
- time of nadir of exhaustion markers after dosing (KLRG-1; single dose, KLRG-1, CTLA-4, PD-1): 48 h
- efficacy of low dose relative to high-dose (4 mg) treatment (melanoma cells; 0.4 mg PO): 70%
- survival (melanoma cells; 0.4 mg and 4 mg/mouse PO QD groups): significant increase in survival
- mice tumor-free for at least 10 days after treatment stopped (melanoma cells; 0.4 mg/mouse PO QD for seven days): 70%
- mice tumor-free for at least 10 days after treatment stopped (melanoma cells; 4 mg/mouse PO QD for seven days): 90%
